# Laboratory results reported in US7932262B2 (Novartis AG, priority 2006, dated 2011).
# Where two headings read alike, the source gives them in different places.
# What was measured:
# A2780 cells = assay: Cell Proliferation Assay (Cell Titer Glo), A2780; format: cell-based; conditions: Homo sapiens, read-out: CPEC50 A2780
# Experimental: IV. Cell Proliferation Assay Protocol:
# A2780, PC-3, or PC3MM cells were seeded at 1000 cells/well in 100 μL/well (10.000 cells/mL) growth media in 96-well plates. Cells were allowed to adhere to the bottom of plates for 3-5 hours in a 37° C. 5% CO2 incubator. Compounds were dissolved in DMSO and then transferred to the cell plates. The cells were incubated with the compounds for 3 days in a 37° C. 5% CO2 incubator. The growth medium containing the compounds was then removed from the cells and fresh medium was added, followed by 100 μL of Cell Titer Glo assay reagent (Promega). This mixture was shaken for 1 minute and then incubated without shaking for 10 minutes. Activity determinations for the compounds were made by detection on a Trilux Instrument.
# PDK1 kinase = biological target: T1, PDK1 kinase (Homo sapiens, UniProt O15530); assay: PDK1 Kinase Alpha Screen Assay; format: biochemical; conditions: read-out: PDK1 IC50
# T1 sequence (O15530 1-556): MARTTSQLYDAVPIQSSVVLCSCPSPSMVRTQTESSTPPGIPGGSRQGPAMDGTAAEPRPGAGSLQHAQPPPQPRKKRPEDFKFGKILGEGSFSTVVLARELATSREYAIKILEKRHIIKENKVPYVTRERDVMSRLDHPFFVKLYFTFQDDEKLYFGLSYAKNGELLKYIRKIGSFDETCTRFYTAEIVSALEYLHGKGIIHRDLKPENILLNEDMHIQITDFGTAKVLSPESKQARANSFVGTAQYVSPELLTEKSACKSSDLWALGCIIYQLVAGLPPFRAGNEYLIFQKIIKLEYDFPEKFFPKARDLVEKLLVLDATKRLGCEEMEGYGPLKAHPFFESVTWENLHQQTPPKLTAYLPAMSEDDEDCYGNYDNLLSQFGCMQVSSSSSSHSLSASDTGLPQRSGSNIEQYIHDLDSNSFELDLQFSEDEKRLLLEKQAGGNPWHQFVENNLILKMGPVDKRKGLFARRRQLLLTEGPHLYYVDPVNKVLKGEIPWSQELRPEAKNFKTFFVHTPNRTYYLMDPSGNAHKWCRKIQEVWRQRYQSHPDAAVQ
# Summary of the method: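 PDK1 phosphorylated 50 nM biotinylated PDK1-4 peptide with 10 uM ATP in Tris pH 7.5, 10 mM MgCl2, 2 mM DTT, 2.5% DMSO for 3-18 hours. After EDTA stop, phosphopeptide was detected by AlphaScreen using phospho-(Ser/Thr) PKA substrate antibody with protein A/streptavidin beads, read after overnight incubation.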
# [1] = 72 h, A2780 cells, 3 days incubation
# [2] = Cell Proliferation Assay, A2780
# [3] = cell proliferation, A2780 cells
SMILES,EC50 (A2780 cells; [1]),IC50 (PDK1 kinase),EC50 (A2780 cells; [2]),EC50 (A2780 cells; [3])
"CC(C)N1CCC(Oc2cccc3cnc(Nc4cccc(S(=O)(=O)N5CCOCC5)c4)nc23)CC1 [Compound 6, [8-(1-Isopropyl-piper-idin-4-yloxy)-quina-zolin-2-yl]-[3-(morpholine-4-sul-fonyl)-phenyl]-amine]",< 5 µM,< 5 µM,,
"CN1CCN(S(=O)(=O)c2cccc(Nc3ncc4cccc(OC5CCNCC5)c4n3)c2)CC1 [Compound 7, [3-(4-Methyl-piper-azine-1-sulfonyl)-phenyl]-[8-(piperidin-4-yloxy)-quinazolin-2-yl]-amine]",< 5 µM,< 5 µM,,
"CC(C)NS(=O)(=O)c1cccc(Nc2ncc3cccc(OC4CCNCC4)c3n2)c1 [Compound 8, N-Isopropyl-3-[8-(piperidin-4-yloxy)-quinazolin-2-yl-amino]-benzenesulfonamide]",< 5 µM,< 5 µM,,
"COCCNS(=O)(=O)c1cccc(Nc2ncc3cccc(OC4CCNCC4)c3n2)c1 [Compound 9, N-(2-Methoxy-ethyl)-3-[8-(piperidin-4-yloxy)-quinazolin-2-ylamino]-benzenesulfonamide]",< 5 µM,< 5 µM,,
"CN1CCN(S(=O)(=O)c2ccc(Nc3ncc4cccc(OC5CCNCC5)c4n3)cc2)CC1 [Compound 10, [4-(4-Methyl-piper-azine-1-sulfonyl)-phenyl]-[8-(piper-idin-4-yloxy)-quinazolin-2-yl]-amine]",< 5 µM,< 5 µM,,
"O=S(=O)(NCCN1CCCC1)c1cccc(Nc2ncc3cccc(OC4CCNCC4)c3n2)c1 [Compound 15, 3-[8-(Piperidin-4-yl-oxy)-quinazolin-2-ylamino]-N-(2-pyrrolidin-1-yl-ethyl)-benzenesulfonamide]",5 to 10 µM,< 5 µM,,
"O=S(=O)(NC1CC1)c1cccc(Nc2ncc3cccc(OC4CCNCC4)c3n2)c1 [Compound 16, N-Cyclopropyl-3-[8-(piperidin-4-yloxy)-quinazolin-2-ylamino]-benzenesulfonamide]",< 5 µM,< 5 µM,,
"NS(=O)(=O)c1ccc(Nc2ncc3ccc(Br)c(OC4CCNCC4)c3n2)cc1 [Compound 17, 4-[7-Bromo-8-(piper-idin-4-yloxy)-quin-azolin-2-ylamino]-benzenesulfonamide]",< 5 µM,< 5 µM,,
"NC(=O)c1ccc(-c2ccc3cnc(Nc4ccc(S(N)(=O)=O)cc4)nc3c2OC2CCNCC2)cc1 [Compound 19, 4-[8-(Piperidin-4-yl-oxy)-2-(4-sulfamoyl-phenylamino)-quinazolin-7-yl]-benzamide]",5 to 10 µM,< 5 µM,,
"NS(=O)(=O)c1ccc(Nc2ncc3ccc(-c4ccncc4)c(OC4CCNCC4)c3n2)cc1 [Compound 20, 4-[8-(Piperidin-4-yl-oxy)-7-pyridin-4-yl-quinazolin-2-ylamino]-benzenesulfonamide]",< 5 µM,< 5 µM,,
"Nc1ncc(-c2ccc3cnc(Nc4ccc(S(N)(=O)=O)cc4)nc3c2OC2CCNCC2)cn1 [Compound 22, 4-[7-(2-Amino-pyrimidin-5-yl)-8-(piperidin-4-yloxy)-quinazolin-2-ylamino]-benzenesulfonamide]",5 to 10 µM,< 5 µM,,
"N#Cc1ccc2cnc(Nc3ccc(S(N)(=O)=O)cc3)nc2c1OC1CCNCC1 [Compound 29, 4-[7-Cyano-8-(piperidin-4-yloxy)-quinazolin-2-ylamino]-benzenesulfonamide]",< 5 µM,< 5 µM,,
"NC(=O)c1ccc(Nc2ncc3cccc(OC4CCNCC4)c3n2)cc1 [Compound 30, 4-[8-(Piperidin-4-yloxy)-quinazolin-2-ylamino]-benzamide]",< 5 µM,< 5 µM,,
"NS(=O)(=O)c1ccc(Nc2ncc3cccc(O[C@H]4CCNC4)c3n2)cc1 [Compound 32, 4-[8-((S)-Pyrrolidin-3-yloxy)-quinazolin-2-ylamino]-benzenesulfonamide]",< 5 µM,< 5 µM,,
"NS(=O)(=O)c1ccc(Nc2ncc3cccc(OC4CN5CCC4CC5)c3n2)cc1 (stereo not shown) [Compound 33, 4-[8-(1-Aza-bicyclo[2.2.2]oct-3-yloxy)-quinazolin-2-ylamino]-benzenesulfonamide]",< 5 µM,< 5 µM,,
"CN1CC[C@H](Oc2cccc3cnc(Nc4ccc(S(N)(=O)=O)cc4)nc23)C1 [Compound 34, 4-[8-((S)-1-Methyl-pyrrolidin-3-yloxy)-quinazolin-2-ylamino]-benzenesulfonamide]",< 5 µM,< 5 µM,,
"CN1CC[C@@H](Oc2cccc3cnc(Nc4ccc(S(N)(=O)=O)cc4)nc23)C1 [Compound 38, 4-[8-((R)-1-Methyl-pyrrolidin-3-yloxy)-quinazolin-2-ylamino]-benzenesulfonamide]",< 5 µM,< 5 µM,,
"CN1CCCC(Oc2cccc3cnc(Nc4ccc(S(N)(=O)=O)cc4)nc23)C1 (stereo not shown) [Compound 39, 4-[8-(1-Methyl-piperidin-3-yloxy)-quinazolin-2-ylamino]-benzenesulfonamide]",< 5 µM,< 5 µM,,
"CC(C)N1CC(Oc2cccc3cnc(Nc4ccc(S(N)(=O)=O)cc4)nc23)C1 [Compound 47, 4-[8-(1-Isopropyl-azetidin-3-yloxy)-quinazolin-2-ylamino]-benzenesulfonamide]",< 5 µM,< 5 µM,,
"NS(=O)(=O)c1ccc(Nc2ncc3cccc(OC4CNC4)c3n2)cc1 [Compound 48, 4-[8-(Azetidin-3-yloxy)-quinazolin-2-ylamino]-benzenesulfonamide]",5 to 10 µM,< 5 µM,,

# The next lines start with the values.
EC50 (A2780 cells; [1]),IC50 (PDK1 kinase),EC50 (A2780 cells; [2]),EC50 (A2780 cells; [3]),SMILES
< 5 µM,< 5 µM,,,"CC(C)CN1CC(Oc2cccc3cnc(Nc4ccc(S(N)(=O)=O)cc4)nc23)C1 [Compound 49, 4-[8-(1-Isobutyl-azetidin-3-yloxy)-quinazolin-2-ylamino]-benzenesulfonamide]"
< 5 µM,< 5 µM,,,"CCN1CC(Oc2cccc3cnc(Nc4ccc(S(N)(=O)=O)cc4)nc23)C1 [Compound 50, 4-[8-(1-Ethyl-azetidin-3-yloxy)-quinazolin-2-ylamino]-benzenesulfonamide]"
5 to 10 µM,< 5 µM,,,"NS(=O)(=O)c1ccc(Nc2ncc3ccc(-c4ccc5c(c4)CCNC5=O)c(OC4CCNCC4)c3n2)cc1 [Compound 64, 4-[7-(1-Oxo-1,2,3,4-tetrahydro-isoquinolin-6-yl)-8-(piperidin-4-yloxy)-quinazolin-2-ylamino]-benzenesulfonamide]"
,,5 to 10 µM,,"CS(=O)(=O)CCNC(=O)c1cccc2cnc(Nc3ccc(S(N)(=O)=O)cc3)nc12 [Compound 627, N-(2-(methylsulfonyl)ethyl)-2-(4-sulfamoylphenylamino)quinazoline-8-carboxamide]"
,,5 to 10 µM,,"NS(=O)(=O)c1ccc(Nc2ncc3cc(F)cc(-c4ccc(F)nc4)c3n2)cc1 [Compound 633, 4-(6-fluoro-8-(6-fluoropyridin-3-yl)quinazolin-2-ylamino)benzenesulfonamide]"
,,5 to 10 µM,,"COc1cc(-c2ccc3cnc(Nc4ccc(S(N)(=O)=O)cc4)nc3c2)c(Cl)cn1 [Compound 696, 4-(7-(5-chloro-2-methoxypyridin-4-yl)quinazolin-2-ylamino)benzenesulfonamide]"
,,,< 5 µM,"COc1cccc(COc2cccc3cnc(Nc4ccc(S(N)(=O)=O)cc4)nc23)c1 [Compound 719, 4-(8-(3-methoxybenzyloxy)quinazolin-2-ylamino)benzenesulfonamide]"
,,,5 to 10 µM,"NS(=O)(=O)c1ccc(Nc2ncc3cccc(OCc4ccc5nonc5c4)c3n2)cc1 [Compound 720, 4-(8-(benzo[c][1,2,5]oxadiazol-5-ylmethoxy)quinazolin-2-ylamino)benzenesulfonamide]"
,,,5 to 10 µM,"c1cc(OC2CCCC2)c2nc(NC3CC3)ncc2c1 [Compound 728, 8-(cyclopentyloxy)-N-cyclopropylquinazolin-2-amine]"
,,,5 to 10 µM,"Fc1ccc(F)c(CNc2ncc3cccc(OC4CCCC4)c3n2)c1 [Compound 729, 8-(cyclopentyloxy)-N-(2,5-difluorobenzyl)quinazolin-2-amine]"
,,,< 5 µM,"Oc1cccc2cnc(NCc3cc(F)ccc3F)nc12 [Compound 730, 2-(2,5-difluorobenzylamino)quinazolin-8-ol]"
,,,5 to 10 µM,"NS(=O)(=O)c1ccc(Nc2ncc3ccc(-c4ccc5c(c4)OCO5)cc3n2)cc1 [Compound 791, 4-(7-(benzo[d][1,3]dioxol-5-yl)quinazolin-2-ylamino)benzenesulfonamide]"
